Measured values reported in article PMC6594753, “Cystic fibrosis drug ivacaftor stimulates CFTR channels at picomolar concentrations” (eLife, 2019).
Like-named read-outs stand apart in the source and are kept apart here.

Molecular target: T1, WT CFTR (Homo sapiens, UniProt P13569)
T1 construct: expressed in transfected cells; host or cells: Xenopus laevis oocytes injected with cRNA transcribed from pGEMHE-CFTR
Test: Ensemble fitting of gating models (Schemes 3 and 4) to on-off current time courses
Assay type: biochemical
Conditions: for EC50 / Kd: calculated from fit parameters; for kin: constrained kin/kout = 62580; for Kd: read-out: Kd;mem
Text: We next attempted to interpret the observed complex kinetics of the drug effects in terms of various molecular models (Figure 5a–d), by performing global fits of each model (Figure 5f, colored lines) to the ensemble of four experimentally observed current time courses: activation and deactivation upon addition and removal of 0.01x saturated (Figure 5f, gray trace) and 1x saturated (Figure 5f, black trace) Vx-770.
An alternative mechanism that could explain delayed activation by the drug is the presence of multiple drug binding sites, all of which must be occupied to switch the channel to a high open probability state. […] We therefore evaluated a simplistic model which postulates independent drug binding to two sites, with identical affinities, but a substantial change in open probability (from Po;bas to Po;max) only for diliganded channels (Scheme 3, Figure 5c).
Finally, assuming a two-compartment membrane and two drug-binding sites, both accessible from the outer leaflet (Scheme 4, Figure 5d), afforded a further small improvement (Figure 5f, red fit lines) relative to Scheme 3, albeit at the expense of an extra free parameter (Figure 5e, right).
The dynamic equations that describe the kinetic models depicted in Figure 5 are as follows:
• dx1(t)/dt = kin⋅Vc – 2⋅kout⋅x1(t) – kon'⋅(2⋅x2(t)+x3(t))⋅x1(t) + koff⋅(2⋅(Ct–x2(t)–x3(t))+x3(t)) • dx2(t)/dt = – 2⋅kon'⋅x1(t)⋅x2(t) + koff⋅x3(t) • dx3(t)/dt = 2⋅kon'⋅x1(t)⋅x2(t) + 2⋅koff⋅(Ct–x2(t)–x3(t)) – (koff +kon'⋅x1(t))⋅x3(t)
(§1) where x1(t) is the concentration of free Vx-770 in the membrane, x2(t) is the concentration of unliganded CFTR channels in the membrane, x3(t) is the concentration of monoliganded CFTR channels in the membrane, Ct is the total concentration of CFTR channels in the membrane, and Vc is the concentration of Vx-770 in the cytosol.
• dx1(t)/dt = kin⋅Vc – (kout +kflip)⋅x1(t) + kflip⋅x2(t) • dx2(t)/dt = kflip⋅x1(t) – (kout +kflip)⋅x2(t) – kon'⋅(2⋅x3(t)+x4(t))⋅x2(t) + koff⋅(2⋅(Ct–x3(t)–x4(t))+x4(t)) • dx3(t)/dt = – 2⋅kon'⋅x2(t)⋅x3(t) + koff⋅x4(t) • dx4(t)/dt = 2⋅kon'⋅x2(t)⋅x3(t) + 2⋅koff⋅(Ct–x3(t)–x4(t)) – (koff +kon'⋅x2(t))⋅x4(t)
as §1, with “x1(t) is the concentration of Vx-770 in the inner membrane leaflet, x2(t)” for “x1(t)”, “outer membrane leaflet, x3(t)” for “membrane, x2(t)”, “outer membrane leaflet, x4(t)” for “membrane, x3(t)”, “outer membrane leaflet,” for “membrane,”
To calculate the value of Ct, the total number of channels in the patch (N) was estimated by assuming Po;bas=0.16 for prephosphorylated channels in ATP (cf., Figure 2c). For Schemes 1 and 3 the volume of the membrane patch was taken as 10^−16 liter (assuming a macroscopic patch surface area of ~4 μm^2 increased by ~5 fold at a microscopic level due to the presence of microvilli ([Dascal, 1987]), and a membrane thickness of ~5 nm), and for Schemes 2 and 4 the volume of the outer membrane leaflet was taken as 5⋅10^−17 liter. Ct was then calculated as N/NA divided by the relevant volume (NA, Avogadro's number).
For the ensemble fitting, all experimental current traces were normalized to their steady-state values observed prior to exposure to Vx-770. Predicted normalized on- and off- current time courses for each model were calculated from the above dynamic equations by solving for the time-dependent evolution of the vector x, using a modified Euler's method ([Press, 1992]). For the on- time courses the initial values for all xi were set to zero, for the off- time courses the final x vector of the preceding on- time course served as the initial vector while Vc was set to zero. […]

[1] = Scheme 3, average of global fits to three pairs of time courses
[2] = Scheme 4, average of global fits to three pairs of time courses

T1 sequence (P13569 whole entry): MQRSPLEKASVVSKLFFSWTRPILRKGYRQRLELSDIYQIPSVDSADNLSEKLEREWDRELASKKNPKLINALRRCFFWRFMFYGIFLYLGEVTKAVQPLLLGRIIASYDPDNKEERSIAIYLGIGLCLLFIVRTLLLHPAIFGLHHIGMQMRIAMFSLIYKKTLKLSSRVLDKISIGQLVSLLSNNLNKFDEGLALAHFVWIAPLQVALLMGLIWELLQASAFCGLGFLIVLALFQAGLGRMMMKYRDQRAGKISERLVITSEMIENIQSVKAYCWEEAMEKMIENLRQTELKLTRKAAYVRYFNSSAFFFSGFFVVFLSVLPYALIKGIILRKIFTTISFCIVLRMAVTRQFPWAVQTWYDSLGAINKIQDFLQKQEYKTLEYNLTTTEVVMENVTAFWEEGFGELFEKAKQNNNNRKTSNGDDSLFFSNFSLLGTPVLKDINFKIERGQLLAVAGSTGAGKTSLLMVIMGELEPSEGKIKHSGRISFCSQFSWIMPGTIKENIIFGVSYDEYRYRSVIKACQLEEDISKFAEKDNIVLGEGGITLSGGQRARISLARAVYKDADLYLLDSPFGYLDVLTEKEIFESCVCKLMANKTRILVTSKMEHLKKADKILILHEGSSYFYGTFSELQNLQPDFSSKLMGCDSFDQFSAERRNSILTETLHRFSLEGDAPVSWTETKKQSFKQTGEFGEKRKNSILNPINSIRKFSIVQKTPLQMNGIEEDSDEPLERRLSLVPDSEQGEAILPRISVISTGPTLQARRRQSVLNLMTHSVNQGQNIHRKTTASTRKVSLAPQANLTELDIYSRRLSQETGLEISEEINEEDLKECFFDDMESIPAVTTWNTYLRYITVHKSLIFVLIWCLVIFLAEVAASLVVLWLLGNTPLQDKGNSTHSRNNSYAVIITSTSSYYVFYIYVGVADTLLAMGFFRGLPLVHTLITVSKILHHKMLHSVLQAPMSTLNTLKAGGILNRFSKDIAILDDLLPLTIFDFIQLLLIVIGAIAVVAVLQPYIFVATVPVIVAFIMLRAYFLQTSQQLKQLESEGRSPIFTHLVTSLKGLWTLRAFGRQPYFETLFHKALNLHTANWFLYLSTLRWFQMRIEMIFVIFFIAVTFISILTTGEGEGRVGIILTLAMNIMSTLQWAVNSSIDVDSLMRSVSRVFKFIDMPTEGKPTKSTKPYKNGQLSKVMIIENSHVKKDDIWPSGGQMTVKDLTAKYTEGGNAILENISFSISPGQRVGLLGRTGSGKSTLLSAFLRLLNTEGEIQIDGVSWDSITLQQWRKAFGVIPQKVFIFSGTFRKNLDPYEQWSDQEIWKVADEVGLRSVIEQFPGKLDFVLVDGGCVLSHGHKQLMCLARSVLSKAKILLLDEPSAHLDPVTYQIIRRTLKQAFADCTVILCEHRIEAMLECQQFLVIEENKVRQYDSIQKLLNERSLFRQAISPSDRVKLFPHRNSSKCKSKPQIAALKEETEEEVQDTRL

- EC50 (Scheme 3, Figure 5f data set, read-out: K0.5;aq): 0.74 nM
- kin (Scheme 3, average (mean ± S.E.M.) of global fits to three pairs of time courses): 4034 ± 464 s⁻¹
- Po;max/Po;bas [1]: 3.935 ± 0.001
- koff [1]: 0.00745 ± 0.000871 s⁻¹
- kon [1]: 870 ± 104 M⁻¹ s⁻¹
- kout [1]: 0.06446 ± 0.00742 s⁻¹
- EC50 (Scheme 3, average of three fits, read-out: K0.5;aq): 0.675 ± 0.0895 nM
- EC50 (Scheme 3, average of three fits, read-out: K0.5;mem): 21100 ± 2800 nM
- Kd (Scheme 3, average of three fits): 8.75 ± 1.16 µM
- koff (Scheme 3, global fit to data set of Figure 5f): 0.00651 s⁻¹
- EC50 (Scheme 4, Figure 5f data set, read-out: K0.5;aq): 0.72 nM
- kin (Scheme 4, average (mean ± S.E.M.) of global fits to three pairs of time courses): 9794 ± 531 s⁻¹
- Po;max/Po;bas [2]: 3.996 ± 0.007
- kflip [2]: 0.04408 ± 0.00583 s⁻¹
- koff [2]: 0.01075 ± 9e-05 s⁻¹
- kon [2]: 3700 ± 627 M⁻¹ s⁻¹
- kout [2]: 0.1565 ± 0.0085 s⁻¹
- EC50 (Scheme 4, average of three fits, read-out: K0.5;aq): 0.669 ± 0.0955 nM
- EC50 (Scheme 4, average of three fits, read-out: K0.5;mem): 7500 ± 1460 nM
- Kd (Scheme 4, average of three fits): 3.11 ± 0.605 µM
- koff (Scheme 4, global fit to data set of Figure 5f): 0.0106 s⁻¹
SMILES: CC(C)(C)c1cc(C(C)(C)C)c(NC(=O)c2c[nH]c3ccccc3c2=O)cc1O [Vx-770, ivacaftor]
